Series [1] addresses T1, Human NMT1 (HsNMT1) (Homo sapiens, UniProt P30419).
The target of series [2] is T2, Plasmodium vivax (Pv) NMT (Plasmodium vivax (strain Salvador I), UniProt A5K1A2).
Series [3] can be described thus: in vitro. The settings on record: male, Sprague-Dawley, rat, pooled cryopreserved rat hepatocytes, pH 7.4.
Series [4] deals with T2, Plasmodium vivax (Pv) NMT. As to the kind of experiment: biochemical.
Series [5] relates to Plasmodium falciparum 3D7. Put plainly: SYBR Green assay, Plasmodium falciparum strain 3D7. The settings on record: P. falciparum strain 3D7, 96 h incubation, read-out: Pf EC50 strain 3D7. The format is cell-based.
Series [6] relates to SU-DHL-10 cells. As to the kind of experiment: Cell cytotoxicity in SU-DHL-10 cell line (CellTiter-Glo). In kind it is cell-based. The settings on record: Homo sapiens, SU-DHL10; CellTiter-Glo, 48 h; read-out: SU-DHL-10 EC50. (In ATP-based viability assays light output follows the ATP content of the culture.)
For series [7], the system named is DOHH-2 tumor cells. As to the kind of experiment: Mouse xenograft, subcutaneous DOHH-2 Lymphoma Model. The format is in vivo. The note with it: intraperitoneally 25 mg/kg twice a day for three days then four day no-dosing, cycle repeated three times, compared to vehicle. On the procedure: Assay (i): Mouse Xenograft Protocol
The in vivo efficacy was assess in a subcutaneous xenograft DOHH-2 Lymphoma Model using Female 6-8 week old CB17/SCID Mice. […] The test compound administration started once the mean tumor size reached approximately 100-150 mm3. Compounds were administered either IP (vehicle 58% Na2HPO4 buffer (10 mM) (pH4.5)+40% PEG400+2% DMSO) or orally (vehicle Na2HPO4 buffer (10 mM) (pH 4.5)+0.2% tween 80). Tumor volumes were measured in two dimensions using a caliper, and the volume expressed in mm3 using the formula: V=(L×W×W)/2, where V is tumor volume, L is tumor length (the longest tumor dimension) and W is tumor width (the longest tumor dimension perpendicular to L).
Mice were dosed with Example 2 orally (50 mg/kg) once a day for 9 consecutive days (FIG. 5a), or Example 2 was dosed intraperitonally (25 mg/kg) in a cycle consisting of administration twice a day for three days followed by a four day no-dosing period (FIG. 5b). The cycle was repeated three times.
Mice were dosed with Example 129 intraperitonally (25 mg/kg) in a cycle consisting of administration twice a day for three days followed by a four day no-dosing period (Figure Sc). The cycle was repeated three times.
The protocol and any amendment(s) or procedures involving the care and use of animals in this study were reviewed and approved by the Institutional Animal Care and Use Committee (IACUC) of CrownBio prior to execution. During the study, the care and use of animals was conducted in accordance with the regulations of the Association for Assessment and Accreditation of Laboratory Animal Care (AAALAC).

Series [8] concerns the target T1, Human NMT1 (HsNMT1). As to the kind of experiment: biochemical.
Series [9] has as its system Shep-ER-N-Myc cell line. As to the kind of experiment: CellTiter-Blue assay, Shep-ER-N-Myc with or without MYCN induction. The format is cell-based, human. The note with it: 72 hours. The source says: (§1) Assay (d): CellTiter-Blue® Assay
(§2) Shep-ER-N-Myc cell line (cell type: human neuroblastoma) was sourced from Linda Valentijn, and firstly reported in Valentijn et. al., Cancer Res, 2005, 65(8), 3136-3145. SKNAS-ER-N-Myc cell line (cell type: human neuroblastoma) was sourced from Michael D. Hogarty, and firstly reported in Ushmorov et al., Oncogene, 2008, 27(24), 3424-3434. P-493-6 cell line was sourced from Chi Van Dang, and firstly reported in Pajic et. al., Int J Cancer, 2000, 87(6), 787-793. P-493-6 cell line is a non-transformed B cell line that can be genetically engineered to have either “low” levels of c-Myc, “medium” levels of c-Myc or “high” levels of c-Myc. The terms “low”, “medium” and “high” are descriptors commonly used in the art and will be readily understood to mean: • i) “low” levels of c-Myc—a level of MYC expression which represents non-proliferating normal cells (i.e. a level of MYC expression not sufficient to cause the cycling of the cells); • ii) “medium” levels of c-Myc—a level of MYC expression which represents normal proliferating cells; and • iii) “high” levels of c-Myc—a level of MYC expression which represents enforced/deregulated expression of c-Myc, typically observed in cancerous cells. […]
For Shep cells, the experiment was performed in a 96 well plate and in technical quadruplicate. […] The fluorescence was measured at 570 nm using an EnVision™ plate reader. […]
On the technique in general: Resazurin is reduced to fluorescent resorufin, in cell work by metabolically active cells.

The subject of series [10] is SKNAS-ER-N-Myc cell line. As to the kind of experiment: CellTiter-Blue assay, SKNAS-ER-N-Myc with or without MYCN induction. The format is cell-based, human.
From the text: as §1, §2
For SKNAS cells, the experiment was performed in a 48 well plate and in technical triplicate. […] The fluorescence was measured at 570 nm using an EnVision™ plate reader. […]

The subject of series [11] is P. falciparum Pf3D7^0087/N9. As to the kind of experiment: Mouse malaria model, NODscidIL2Rγnull mice engrafted with human erythrocytes.
From the text: Assay (h): Mouse Malaria Model Protocol
The goal of this study was to evaluate the efficacy of compounds of the invention against P. falciparum Pf3D7^0087/N9 in NODscidIL2Rγ^null mice engrafted with human erythrocytes.
Mice were euthanized on day 7.
The subject of series [12] is P-493-6 cell line. Put plainly: CellTiter-Blue assay, P-493-6 with low, medium or high c-Myc. The format is cell-based, human. The settings on record: 72 hours, different expression levels of c-Myc induced.
From the text: as §1, §2

By IC50 is commonly meant the point on the concentration scale where inhibition reaches its midpoint. Low values mean greater potency, high ones weaker potency. One may read the half-life as the time needed for the level to fall by half in the phase considered. High values mean slow loss, low ones fast loss. Broadly, the EC50 is the concentration giving half of the maximal effect.

Read-outs that look alike come from different tables or passages of the source. Marks after values point to notes of the source that are not given here.

T2 sequence (A5K1A2 1-410): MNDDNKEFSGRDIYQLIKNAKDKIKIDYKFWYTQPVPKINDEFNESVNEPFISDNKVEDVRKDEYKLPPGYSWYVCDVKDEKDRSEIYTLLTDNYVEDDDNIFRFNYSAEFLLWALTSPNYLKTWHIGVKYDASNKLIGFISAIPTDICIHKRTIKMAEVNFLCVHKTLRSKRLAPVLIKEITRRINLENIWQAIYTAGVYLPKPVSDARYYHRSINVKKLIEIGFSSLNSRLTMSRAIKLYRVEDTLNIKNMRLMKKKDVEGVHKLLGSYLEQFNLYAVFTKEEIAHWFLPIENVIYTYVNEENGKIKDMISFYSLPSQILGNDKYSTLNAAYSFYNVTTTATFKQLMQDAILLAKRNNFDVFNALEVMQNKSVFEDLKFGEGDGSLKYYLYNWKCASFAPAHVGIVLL
T1 sequence (P30419 whole entry, looked up): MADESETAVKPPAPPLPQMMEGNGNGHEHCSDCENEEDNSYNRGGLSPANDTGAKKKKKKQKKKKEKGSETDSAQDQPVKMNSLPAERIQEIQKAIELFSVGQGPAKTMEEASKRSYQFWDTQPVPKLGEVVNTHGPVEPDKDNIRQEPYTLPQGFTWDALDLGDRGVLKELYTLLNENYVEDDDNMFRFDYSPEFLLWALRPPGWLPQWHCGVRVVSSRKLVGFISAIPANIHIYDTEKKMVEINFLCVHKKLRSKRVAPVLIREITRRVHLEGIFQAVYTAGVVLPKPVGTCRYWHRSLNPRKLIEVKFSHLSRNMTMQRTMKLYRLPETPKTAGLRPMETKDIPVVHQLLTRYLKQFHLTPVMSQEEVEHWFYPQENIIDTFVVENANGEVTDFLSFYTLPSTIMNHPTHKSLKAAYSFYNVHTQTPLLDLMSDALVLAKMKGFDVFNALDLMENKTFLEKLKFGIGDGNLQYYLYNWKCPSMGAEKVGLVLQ

`Cc1cnc(CNC(=O)C2CN(c3nc(NCCN(C)C)ncc3Cl)C2)cn1` [Comparative Example 1, reference compound]: the IC50 in series [1] is 46000 nM; in series [2], 8400 nM.
On to `CN(C)CCNc1ncc(Cl)c(N2CC(C(=O)NCc3ccc(F)cc3F)C2)n1` [Comparative Example 2], for which the IC50 in series [2] was found to be 2000 nM.
Regarding `C[C@@H]1CN(c2ncc(F)c(N3CC(C(=O)N(C)C(C)(C)c4cnc5ccccn45)C3)n2)CCN1C` [Example 102, 1-{2-[(3R)-3,4-dimethylpiperazin-1-yl]-5-fluoropyrimidin-4-yl}-N-(2-{imidazo[1,2-a]pyridin-3-yl}propan-2-yl)-N-methylazetidine-3-carboxamide], in series [3], the half-life at 1 µM amounted to 14.5 min. Besides, the results for the IC50 in series [4] and in series [1] were 24 nM and 72 nM, respectively. Also, the EC50 in [5] was above 1000 nM.
As to `C[C@H]1CNCCN1c1ncc(Cl)c(N2CC(C(=O)NC(C)(C)c3cnc4ccccn34)C2)n1` [Example 129, (S)-1-(5-chloro-2-(2-methylpiperazin-1-yl)pyrimidin-4-yl)-N-(2-(imidazo[1,2-a]pyridin-3-yl)propan-2-yl)azetidine-3-carboxamide], the EC50 in series [6] was 6 nM. Also, the tumour volume entry in series [7] is “significant decrease in tumour volume”. The molecule further displayed an IC50 in [8] of 2 nM.
With `C[C@H]1CN(C)CCN1c1ncc(Cl)c(N2CC(C(=O)NC(C)(C)c3cnc4ccccn34)C2)n1` [Example Compound 2], the “metabolic viability of the Shep-ER-N-MYC cell line” value in series [9] is on record as “clear loss in metabolic viability when the cells have induction of MYCN”. For the same molecule, the “metabolic viability of the SKNAS-ER-N-MYC cell line” value in series [10] is on record as “clear loss in metabolic viability when the cells have induction of MYCN”.
Turning to `C[C@@H]1CN(c2ncc(Cl)c(N3CC(C(=O)NC(C)(C)c4cnc5ccccn45)C3)n2)CCN1C` [Example Compound 3], the average parasitemia values in [11] (3 mg/kg po per day on day 3, 4, 5 and 6 post-infection, day 0 post infection) was 0.01%; in series [11] (3 mg/kg po per day on day 3, 4, 5 and 6 post-infection, day 3 post infection), 1.49%; in [11] (3 mg/kg po per day on day 3, 4, 5 and 6 post-infection, day 4 post infection), 4.77%; in [11] (3 mg/kg po per day on day 3, 4, 5 and 6 post-infection, day 5 post infection), 6.73%; in series [11] (3 mg/kg po per day on day 3, 4, 5 and 6 post-infection, day 6 post infection), 10.66%; in series [11] (3 mg/kg po per day on day 3, 4, 5 and 6 post-infection, day 7 post infection) it was 11.25%. The average parasitemia values in [11] (10 mg/kg po per day on day 3, 4, 5 and 6 post-infection, day 0 post infection) came out at 0.01%; in series [11] (10 mg/kg po per day on day 3, 4, 5 and 6 post-infection, day 3 post infection), 1.37%; in series [11] (10 mg/kg po per day on day 3, 4, 5 and 6 post-infection, day 4 post infection), 2.40%; in [11] (10 mg/kg po per day on day 3, 4, 5 and 6 post-infection, day 5 post infection), 4.21%; in series [11] (10 mg/kg po per day on day 3, 4, 5 and 6 post-infection, day 6 post infection), 6.09%; in series [11] (10 mg/kg po per day on day 3, 4, 5 and 6 post-infection, day 7 post infection), 7.35%. Further, the average parasitemia values in series [11] (30 mg/kg po per day on day 3, 4, 5 and 6 post-infection, day 0 post infection) is reported as 0.01%; in [11] (30 mg/kg po per day on day 3, 4, 5 and 6 post-infection, day 3 post infection) it was 0.60%; in series [11] (30 mg/kg po per day on day 3, 4, 5 and 6 post-infection, day 4 post infection), 0.18%; in [11] (30 mg/kg po per day on day 3, 4, 5 and 6 post-infection, day 5 post infection), 0.02%; in [11] (30 mg/kg po per day on day 3, 4, 5 and 6 post-infection, day 6 post infection) it was 0.01%; in series [11] (30 mg/kg po per day on day 3, 4, 5 and 6 post-infection, day 7 post infection), 0.00* %. For the same molecule, in series [12], the “metabolic viability of the P-493-6 cell line” value is “clear MYC-dependent loss in metabolic viability”. The “metabolic viability of the Shep-ER-N-MYC cell line” value in [9] was “clear loss in metabolic viability when the cells have induction of MYCN”. For the same molecule, the “metabolic viability of the SKNAS-ER-N-MYC cell line” value in series [10] is reported as “clear loss in metabolic viability when the cells have induction of MYCN”.
In the case of `C[C@H]1CN(C)CCN1c1ncc(Cl)c(N2CC(C(=O)NC(C)(C)c3cnc4ccccn34)C2)n1` [Example compound 2], the “metabolic viability of the P-493-6 cell line” value in [12] was “clear MYC-dependent loss in metabolic viability”.

Source of the values: patent publication US20240166643A1, “IMIDAZO[1,2-A]PYRIDINE COMPOUNDS AND THEIR USE IN THERAPY” (Imperial College Innovations Limited, priority 2020, published 2024).
